This note sets out measurements from patent publication US20040023945A1, “CYCLIC AMP-SPECIFIC PHOSPHODIESTERASE INHIBITORS” (ICOS Corporation, priority 1999, published 2004).

SMILES strings stand for the structures.

The experiment concerns human peripheral blood lymphocytes. Description: Lipopolysaccharide-stimulated TNFα release from human peripheral blood lymphocytes. It counts as cell-based. As to conditions: Homo sapiens, Lymphocyte, LPS-stimulated TNFα release from human PBL; read-out: PBL/TNFα EC50. As for the experimental part:
The compounds of structural formula (II) also were tested for an ability to reduce TNFα secretion in human peripheral blood lymphocytes. The ability to reduce TNFα secretion is related to the EC50 values (i.e., the effective concentration of the compound capable of inhibiting 50% of the total TNFα).
To assess the ability of a compound to reduce TNFα secretion in human peripheral blood lymphocytes (PBL), the following tests were performed.
Heparinized blood (approximately 30 mL) drawn from human volunteers was mixed 1:1 with Dulbecco's modified phosphate-buffered saline. This mixture was mixed 1:1 with HISTOPAQUE® and centrifuged at 1,500 rpm at room temperature without braking in the swinging bucket of a Beckman model TJ6 centrifuge. Erythrocytes were centrifuged to the bottom of the tubes, and serum remained at the surface of the tubes. A layer containing lymphocytes sedimented between the serum and HISTOPAQUE® layers, and was removed by aspiration to a fresh tube. The cells were quantified and adjusted to 3×10^6 cells/mL and a 100 μL aliquot is placed into the wells of a 96 well plate. Test compounds and RPMI media (Gibco/BRL Life Sciences) are added to each of the wells 15 minutes prior to addition of bacterial LPS ([…]). The mixture was allowed to incubate for 20 hours at 37° C. in a humidified chamber. The cells then were separated by centrifuging at 800 rpm for 5 minutes at room temperature. An aliquot of 180 μL of supernatant was transferred to a new plate for determination of TNFα concentration. TNFα protein in the cell supernatant fluids was measured using a commercially available enzyme-linked immunosorbent assay (ELISA) (CYTOSCREEN® Immunoassay Kit from Biosource International).
The cell-based assay provided the following results for various pyrrolidine compounds of the present invention. The EC50 values (i.e., effective concentration of the compound capable of inhibiting 50% of the total TNFα) illustrate the ability of the present compounds to inhibit LPS-stimulated TNFα release from human PBL.
Take `COc1ccc([C@@H]2CN(C(=O)C(=O)NCc3ccccc3)C[C@@]2(C)[C@@H](C)O)cc1OC1CCCC1` [Example 83, 2-[3-((1R)-1-Hydroxyethyl)(3S,4S)-4-(3-cyclopentyloxy-4-methoxyphenyl)-3-methylpyrrolidinyl]-2-oxo-N-benzylacetamide]: the EC50 is 0.051 µM. As to `COC(=O)N1C[C@@H](c2ccc(OC)c(OC(C)CCc3ccccc3)c2)[C@](C)(C(C)O)C1` (relative stereo) [Example 6, trans-3-(1-Hydroxyethyl)-4-(4-methoxy-3-(1-methyl-3-phenylpropoxy)phenyl]-3-methylpyrrolidine-1-carboxylic acid methyl ester], the EC50 is 3.66 µM. For `COc1ccc([C@@H]2CN(c3ccccn3)C[C@@]2(C)[C@@H](C)O)cc1OC1CCCC1` [Example 34, (1R)-1-[(3S,4S)-4-(3-Cyclopentyloxy-4-methoxyphenyl)-3-methyl-1-(2-pyridyl)pyrrolidin-3-yl]ethan-1-ol] the value was 0.25 µM; for `COc1ccc([C@@H]2CN(C(=O)C(N)=O)C[C@@]2(C)[C@@H](C)O)cc1OC1CCCC1` [Example 74, 2-[3-((1R)-1-Hydroxyethyl)(3S,4S)-4-(3-cyclopentyloxy-4-methoxyphenyl)-3-methylpyrrolidinyl]-2-oxoacetamide], 0.557 µM. In the case of `COc1ccc([C@@H]2CN(c3cccnc3)C[C@@]2(C)[C@@H](C)O)cc1OC1Cc2ccccc2C1` [Example 32, (1R)-1-[(3S,4S)-4-(3-Indan-2-yloxy-4-methoxyphenyl)-3-methyl-1-(3-pyridyl)pyrrolidin-3-yl]ethan-1-ol], the EC50 turned out to be 0.801 µM. To `COc1ccc([C@@H]2CN(C(=O)[C@H](O)C3CCCCC3)C[C@@]2(C)[C@@H](C)O)cc1OC1CCCC1` [Example 91, (2R)-1-[3-((1R)-1-Hydroxyethyl)(3S,4S)-4-(3-cyclopentyloxy-4-methoxyphenyl)-3-methylpyrrolidinyl]-2-cyclohexyl-2-hydroxyethan-1-one] belongs 0.044 µM; to `COC(=O)N1C[C@@H](c2ccc(OC)c(OC3Cc4ccccc4C3)c2)[C@](C)(C(C)O)C1` (mixture of isomers) [Example 4, trans-(±)-3-(1-Hydroxyethyl)-4-[3-(indan-2-yloxy)-4-methoxyphenyl]-3-methylpyrrolidine-1-carboxylic acid methyl ester], 3.61 µM; to `COc1ccc([C@@H]2CN(C(=O)C(=O)NC3CCCC3)C[C@@]2(C)[C@@H](C)O)cc1OC1CCCC1` [Example 82, 2-[3-((1R)-1-Hydroxyethyl)(3S,4S)-4-(3-cyclopentyloxy-4-methoxyphenyl)-3-methylpyrrolidinyl]-N-cyclopentyl-2-oxoacetamide], 0.49 µM.

As for `COc1ccc([C@@H]2CN(C(=O)C(N)=O)C[C@@]2(C)[C@@H](C)O)cc1OC1Cc2ccccc2C1` [Example 79, 2-{(3S,4S)-3-((R)-1-Hydroxyethyl)-4-[3-(indan-2-yloxy)-4-methoxyphenyl]-3-methylpyrrolidin-1-yl}-2-oxo-acetamide], the EC50 was determined as 2.37 µM. For `COc1ccc([C@@H]2CN(C(=O)[C@H](N)C(C)C)C[C@@]2(C)[C@@H](C)O)cc1OC1CCCC1` [Example 87, (2R)-1-[3-((1R)-1-Hydroxyethyl)(3S,4S)-4-(3-cyclopentyloxy-4-methoxyphenyl)-3-methylpyrrolidinyl]-2-amino-3-methylbutan-1-one] the value was 0.934 µM; for `COc1ccc([C@@H]2CN(C(=O)C(N)=O)C[C@@]2(C)[C@@H](C)O)cc1OCC#Cc1ccccc1` [Example 75, 2-{(3S,4S)-3-((R)-1-Hydroxyethyl)-4-[4-methoxy-3-(3-phenylprop-2-ynyloxy)-phenyl]-3-methylpyrrolidin-1-yl}-2-oxo-acetamide], 0.121 µM. To `COc1ccc([C@@H]2CN(c3cccnc3)C[C@@]2(C)[C@@H](C)O)cc1OC1CCCC1` [Example 35, (1R)-1-[(3S,4S)-4-(3-Cyclopentyloxy-4-methoxyphenyl)-3-methyl-1-(3-pyridyl)pyrrolidin-3-yl]ethan-1-ol] belongs 0.0203 µM; to `COC(=O)N1C[C@@H](c2ccc(OC)c(OC3CCCC3)c2)[C@](C)(C(C)(C)O)C1` (racemic) [Example 1, (±)-4-(3-Cyclopentyloxy-4-methoxyphenyl)-3-(1-hydroxy-1-methylethyl)-3-methylpyrrolidine-1-carboxylic acid methyl ester], 1.21 µM. As for `COc1ccc([C@@H]2CN(C(=O)C(O)c3ccccc3)CC2(C)[C@@H](C)O)cc1OC1CCCC1` (stereo in doubt) [Example 63, 1-((3R)-3-((1R)-1-Hydroxyethyl)-4-(3-cyclopentyloxy-4-methoxyphenyl)-3-methylpyrrolidinyl]-2-hydroxy-2-phenylethan-1-one], the EC50 was 0.267 µM. For `COc1ccc([C@@H]2CN(C(=O)CO)C[C@@]2(C)[C@@H](C)O)cc1OC1CCCC1` [Example 65, 1-(3-((1R)-1-Hydroxyethyl)(3S,4S)-4-(3-cyclopentyloxy-4-methoxyphenyl)-3-methylpyrrolidinyl]-2-hydroxyethan-1-one] the value was 0.181 µM; for `COc1ccc([C@@H]2CN(C(=O)[C@@H](OC(C)=O)C3CCCCC3)C[C@@]2(C)[C@@H](C)O)cc1OC1CCCC1` [Example 88, 2-[3-((1R)1-Hydroxyethyl)(3S,4S)-4-(3-cyclopentyloxy-4-methoxyphenyl)-3-methylpyrrolidinyl](1S)-1-cyclohexyl-2-oxoethyl acetate], 0.63 µM. For the compound `COc1ccc([C@@H]2CN(C(=O)CO)C[C@@]2(C)C(C)(C)O)cc1OCC1CC1` [Example 2, 1-[4-(S)-(3-Cyclopropylmethoxy-4-methoxyphenyl)-3-(1-hydroxy-1-methylethyl)-3-(S)-methylpyrrolidin-1-yl]-2-hydroxyethanone], the EC50 was determined as 1.9 µM. For `COc1ccc([C@@H]2CN(C(=O)[C@H](OC(C)=O)C3CCCCC3)C[C@@]2(C)[C@@H](C)O)cc1OC1CCCC1` [Example 90, 1-[3-((1R)-1-Hydroxyethyl)(3S,4S)-4-(3-cyclopentyloxy-4-methoxyphenyl)-3-methylpyrrolidinyl](2R)-2-cyclohexyl-2-acetoxyethan-1-one], the EC50 is 0.061 µM. Regarding `COc1ccc([C@@H]2CN(C(=O)[C@@H](O)C3CCCCC3)C[C@@]2(C)[C@@H](C)O)cc1OC1CCCC1` [Example 89, 1-[3-((1R)-1-Hydroxyethyl)(3S,4S)-4-(3-cyclopentyloxy-4-methoxyphenyl)-3-methylpyrrolidinyl](2S)-2-cyclohexyl-2-hydroxyethan-1-one], the EC50 was 0.86 µM.

On to `COc1ccc([C@@H]2CN(C(=O)COCc3ccccc3)C[C@@]2(C)[C@@H](C)O)cc1OC1CCCC1` [Example 64, 1-[3-((1R)-1-Hydroxyethyl)(3S,4S)-4-(3-cyclopentyloxy-4-methoxyphenyl)-3-methylpyrrolidinyl]-2-(phenylmethoxy)ethan-1-one], for which the EC50 was found to be 0.0362 µM.

For the compound `COC(=O)N1C[C@@H](c2ccc(OC)c(OC3CC4CCC3C4)c2)[C@](C)(C(C)O)C1` (stereo partly drawn) [Example 5, trans 4-[3-Exo-(Bicyclo[2.2.1]hept-2-yloxy)-4-methoxyphenyl]-3-(1-hydroxyethyl)-3-methylpyrrolidine-1-carboxylic acid methyl ester], the EC50 was 1.55 µM.
